{"source": "the supplement of paper PMC9663587", "key": {"THZ-P1-2": {"compound": "CN(C)C/C=C/C(=O)NC1=CC=C(C=C1)C(=O)NC2=CC=CC(=C2)NC3=NC=NC(=C3)C4=CNC5=CC=CC=C54 [THZ-P1-2]"}, "Ceritinib/LDK378": {"compound": "Cc1cc(Nc2ncc(Cl)c(Nc3ccccc3S(=O)(=O)C(C)C)n2)c(OC(C)C)cc1C1CCNCC1 [Ceritinib/LDK378]"}, "Luminespib/NVP-AUY922": {"compound": "CCNC(=O)c1noc(-c2cc(C(C)C)c(O)cc2O)c1-c1ccc(CN2CCOCC2)cc1 [Luminespib/NVP-AUY922]"}, "Saracatinib/AZD0530": {"compound": "CN1CCN(CCOc2cc(OC3CCOCC3)c3c(Nc4c(Cl)ccc5c4OCO5)ncnc3c2)CC1 [Saracatinib/AZD0530]"}, "BSJ-01-175": {"compound": "CN(C)C/C=C/C(=O)Nc1ccc(O[C@@H]2CCC[C@@H](Nc3ncc(Cl)c(-c4c[nH]c5ccccc45)n3)C2)cc1 [BSJ-01-175]"}, "[1]": {"compound": "CCCCOc1c(C(=O)c2c(F)cc(C)cc2F)c[nH]c2nncc1-2"}, "BSJ-03-123": {"compound": "CC(=O)c1c(C)c2cnc(Nc3ccc(N4CCN(CCOCCOCCOCCNC(=O)COc5cccc6c5C(=O)N(C5CCC(=O)NC5=O)C6=O)CC4)cn3)nc2n(C2CCCC2)c1=O [BSJ-03-123]", "experiment": "increase in dead-cell fraction, 72 h; higher = more death;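 also: breast cancer cell lines in 384-well plates, stained with Hoechst plus LIVE/DEAD far red dye and imaged, cells above an LDR intensity threshold counted dead, Hoechst-negative corpses included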"}, "Neratinib/HKI272": {"compound": "CCOc1cc2ncc(C#N)c(Nc3ccc(OCc4ccccn4)c(Cl)c3)c2cc1NC(=O)/C=C/CN(C)C [Neratinib/HKI272]", "experiment": "increase in dead-cell fraction, 72 h; higher = more death"}, "[2]": {"compound": "CCc1cnn2c(NCc3ccc[n+]([O-])c3)cc(N3CCCC[C@H]3CCO)nc12", "experiment": "increase in dead-cell fraction, 72 h; higher = more death"}, "[3]": {"compound": "CCN1CCN(Cc2ccc(Nc3ncc(F)c(-c4cc(F)c5nc(C)n(C(C)C)c5c4)n3)nc2)CC1", "experiment": "increase in dead-cell fraction, 72 h; higher = more death"}, "THZ1": {"compound": "CN(C)C/C=C/C(=O)Nc1ccc(C(=O)Nc2cccc(Nc3ncc(Cl)c(-c4c[nH]c5ccccc45)n3)c2)cc1 [THZ1]", "experiment": "increase in dead-cell fraction, 72 h; higher = more death"}}, "data": [{"cell line": "MDAMB436", "values": [{"measurement": "GR50, 72 h", "setting": "THZ-P1-2", "result": 4.3, "unit": "µM"}, {"measurement": "GR50, 72 h", "setting": "Ceritinib/LDK378", "result": 0.499, "unit": "µM"}, {"measurement": "GR50, 72 h", "setting": "Luminespib/NVP-AUY922", "result": 0.00391, "unit": "µM"}, {"measurement": "GR50, 72 h", "setting": "Saracatinib/AZD0530", "result": "> 10", "unit": "µM"}, {"measurement": "GR50, 72 h", "setting": "BSJ-01-175", "result": 0.00965, "unit": "µM"}, {"measurement": "GR50, 72 h", "setting": "[1]", "result": 1.02, "unit": "µM"}, {"measurement": "increase in dead-cell fraction", "setting": "BSJ-03-123; 0.001 µM", "result": -0.0105}, {"measurement": "increase in dead-cell fraction", "setting": "BSJ-03-123; 0.003162 µM", "result": 0.0015}, {"measurement": "increase in dead-cell fraction", "setting": "BSJ-03-123; 0.01 µM", "result": 0.0056}, {"measurement": "increase in dead-cell fraction", "setting": "BSJ-03-123; 0.03162 µM", "result": -0.0027}, {"measurement": "increase in dead-cell fraction", "setting": "BSJ-03-123; 0.1 µM", "result": 0.0104}, {"measurement": "increase in dead-cell fraction", "setting": "BSJ-03-123; 0.3162 µM", "result": 0.0058}, {"measurement": "increase in dead-cell fraction", "setting": "BSJ-03-123; 1 µM", "result": -0.0041}, {"measurement": "increase in dead-cell fraction", "setting": "BSJ-03-123; 3.162 µM", "result": 0.0011}, {"measurement": "increase in dead-cell fraction", "setting": "BSJ-03-123; 10 µM", "result": 0.0742}, {"measurement": "increase in dead-cell fraction", "setting": "Neratinib/HKI272; 0.0003162 µM", "result": 0.0013}, {"measurement": "increase in dead-cell fraction", "setting": "Neratinib/HKI272; 0.001 µM", "result": 0.0034}, {"measurement": "increase in dead-cell fraction", "setting": "Neratinib/HKI272; 0.003162 µM", "result": -0.0005}, {"measurement": "increase in dead-cell fraction", "setting": "Neratinib/HKI272; 0.01 µM", "result": 0.0014}, {"measurement": "increase in dead-cell fraction", "setting": "Neratinib/HKI272; 0.03162 µM", "result": 0.0028}, {"measurement": "increase in dead-cell fraction", "setting": "Neratinib/HKI272; 0.1 µM", "result": 0.0066}, {"measurement": "increase in dead-cell fraction", "setting": "Neratinib/HKI272; 0.3162 µM", "result": 0.0167}, {"measurement": "increase in dead-cell fraction", "setting": "Neratinib/HKI272; 1 µM", "result": 0.0223}, {"measurement": "increase in dead-cell fraction", "setting": "Neratinib/HKI272; 3.162 µM", "result": 0.0987}, {"measurement": "increase in dead-cell fraction", "setting": "[2]; 0.0001 µM", "result": -0.0027}, {"measurement": "increase in dead-cell fraction", "setting": "[2]; 0.0003162 µM", "result": -0.0028}, {"measurement": "increase in dead-cell fraction", "setting": "[2]; 0.001 µM", "result": 0.0008}, {"measurement": "increase in dead-cell fraction", "setting": "[2]; 0.003162 µM", "result": 0.0055}, {"measurement": "increase in dead-cell fraction", "setting": "[2]; 0.01 µM", "result": 0.0157}, {"measurement": "increase in dead-cell fraction", "setting": "[2]; 0.03162 µM", "result": 0.0896}, {"measurement": "increase in dead-cell fraction", "setting": "[2]; 0.1 µM", "result": 0.0459}, {"measurement": "increase in dead-cell fraction", "setting": "[2]; 0.3162 µM", "result": 0.0256}, {"measurement": "increase in dead-cell fraction", "setting": "[2]; 1 µM", "result": 0.035}, {"measurement": "increase in dead-cell fraction", "setting": "[3]; 0.001 µM", "result": 0.0024}, {"measurement": "increase in dead-cell fraction", "setting": "[3]; 0.003162 µM", "result": -0.005}, {"measurement": "increase in dead-cell fraction", "setting": "[3]; 0.01 µM", "result": 0.0007}, {"measurement": "increase in dead-cell fraction", "setting": "[3]; 0.03162 µM", "result": -0.0009}, {"measurement": "increase in dead-cell fraction", "setting": "[3]; 0.1 µM", "result": 0.0076}, {"measurement": "increase in dead-cell fraction", "setting": "[3]; 0.3162 µM", "result": 0.0116}, {"measurement": "increase in dead-cell fraction", "setting": "[3]; 1 µM", "result": 0.0346}, {"measurement": "increase in dead-cell fraction", "setting": "[3]; 3.162 µM", "result": 0.0531}, {"measurement": "increase in dead-cell fraction", "setting": "[3]; 10 µM", "result": 0.316}, {"measurement": "increase in dead-cell fraction", "setting": "THZ1; 0.0001 µM", "result": 0.0026}, {"measurement": "increase in dead-cell fraction", "setting": "THZ1; 0.0003162 µM", "result": -0.0097}, {"measurement": "increase in dead-cell fraction", "setting": "THZ1; 0.001 µM", "result": -0.0017}, {"measurement": "increase in dead-cell fraction", "setting": "THZ1; 0.003162 µM", "result": -0.0001}, {"measurement": "increase in dead-cell fraction", "setting": "THZ1; 0.01 µM", "result": -0.006}, {"measurement": "increase in dead-cell fraction", "setting": "THZ1; 0.03162 µM", "result": -0.0078}]}]}
